Where “and” joins values, the source holds several entries; their conditions need not be identical. Identical values can stand only once.
Settings: Liquid, Vibrating tube method

CCCC(=O)OCC(COC(=O)CCC)(COC(=O)CCC)COC(=O)CCC [pentaerythritol tetrabutyrate]
Settings	mass density
323.15 K, 33305 kPa	1046.9 kg/m3
323.15 K, 33386 kPa	1047 kg/m3
323.15 K, 33430 kPa	1047.1 kg/m3
323.15 K, 33468 kPa	1047.2 kg/m3
323.15 K, 33504 kPa	1047.1 kg/m3
323.15 K, 33549 kPa	1047.2 kg/m3
323.15 K, 33587 kPa	1047.2 kg/m3
323.15 K, 33625 kPa	1047.2 kg/m3
323.15 K, 33664 kPa	1047.2 kg/m3
323.15 K, 33690 kPa	1047.2 kg/m3
323.15 K, 33710 kPa	1047.3 kg/m3
323.15 K, 33750 kPa	1047.2 kg/m3
323.15 K, 33797 kPa	1047.3 kg/m3
323.15 K, 33837 kPa	1047.4 kg/m3
323.15 K, 34013 kPa	1047.4 kg/m3
323.15 K, 34067 kPa	1047.4 kg/m3
323.15 K, 34113 kPa	1047.7 kg/m3
323.15 K, 34161 kPa	1047.5 kg/m3
323.15 K, 34221 kPa	1047.5 kg/m3
323.15 K, 34272 kPa	1047.7 kg/m3
323.15 K, 34276 kPa	1047.6 kg/m3
323.15 K, 34313 kPa	1047.6 kg/m3
323.15 K, 34342 kPa	1047.6 kg/m3
323.15 K, 34379 kPa	1047.7 kg/m3
323.15 K, 34410 kPa	1047.7 kg/m3
323.15 K, 34436 kPa	1047.7 kg/m3
323.15 K, 34450 kPa	1047.8 kg/m3
323.15 K, 34468 kPa	1047.9 kg/m3
323.15 K, 34568 kPa	1047.8 kg/m3
323.15 K, 34570 kPa	1047.8 kg/m3 and 1047.9 kg/m3
323.15 K, 34571 kPa	1047.7 kg/m3
323.15 K, 34572 kPa	1047.7 kg/m3 and 1047.9 kg/m3 and 1047.8 kg/m3
343.13 K, 2755.8 kPa	1010.1 kg/m3
343.13 K, 2840 kPa	1010.2 kg/m3
343.13 K, 4339.6 kPa	1011.5 kg/m3
343.14 K, 104.4 kPa	1008.1 kg/m3
343.14 K, 105.3 kPa	1008.1 kg/m3
343.14 K, 105.8 kPa	1008.1 kg/m3
343.14 K, 106.3 kPa	1008.1 kg/m3
343.14 K, 107.5 kPa	1008.2 kg/m3
343.14 K, 108.6 kPa	1008.2 kg/m3
343.14 K, 110.3 kPa	1008.1 kg/m3
343.14 K, 112.9 kPa	1008.2 kg/m3
343.14 K, 116.2 kPa	1008.1 kg/m3
343.14 K, 121.8 kPa	1008.1 kg/m3
343.14 K, 129.6 kPa	1008.1 kg/m3
343.14 K, 141.1 kPa	1008.3 kg/m3
343.14 K, 155.9 kPa	1008.2 kg/m3
343.14 K, 167 kPa	1008.1 kg/m3
343.14 K, 181.6 kPa	1008.1 kg/m3
343.14 K, 200 kPa	1008.2 kg/m3
343.14 K, 216 kPa	1008.1 kg/m3
343.14 K, 226.6 kPa	1008.2 kg/m3
343.14 K, 238.6 kPa	1008.3 kg/m3
343.14 K, 252.1 kPa	1008.2 kg/m3
343.14 K, 267.4 kPa	1008.2 kg/m3
343.14 K, 284.6 kPa	1008.3 kg/m3
343.14 K, 304.8 kPa	1008.3 kg/m3
343.14 K, 328.1 kPa	1008.2 kg/m3
343.14 K, 354.2 kPa	1008.2 kg/m3
343.14 K, 383.4 kPa	1008.3 kg/m3
343.14 K, 404.4 kPa	1008.4 kg/m3
343.14 K, 419.5 kPa	1008.4 kg/m3
343.14 K, 436.2 kPa	1008.5 kg/m3
343.14 K, 541.8 kPa	1008.4 kg/m3
343.14 K, 568.7 kPa	1008.5 kg/m3
343.14 K, 598.4 kPa	1008.6 kg/m3
343.14 K, 626.6 kPa	1008.5 kg/m3
343.14 K, 662.6 kPa	1008.4 kg/m3
343.14 K, 698.7 kPa	1008.5 kg/m3
343.14 K, 717.3 kPa	1008.6 kg/m3
343.14 K, 736.7 kPa	1008.6 kg/m3
343.14 K, 752.7 kPa	1008.6 kg/m3
